Test results as given in ChEMBL document CHEMBL4308841, “Synthesis, in vitro antiproliferative activity, and kinase inhibitory effects of pyrazole-containing diarylureas and diarylamides” (Eur J Med Chem, 2018).

Tests used:
SK-MEL-2 [1] = assay: Growth inhibition of human SK-MEL-2 cells assessed as cell growth at 10 uM incubated for 48 hrs by sulforhodamine B assay relative to control; format: functional; details: SK-MEL-2, 48 h, read-out: Activity
SW-620 = assay: Growth inhibition of human SW620 cells incubated for 48 hrs by sulforhodamine B assay; format: functional, cell-based; details: SW-620, 48 h
SNB-19 = assay: Growth inhibition of human SNB19 cells incubated for 48 hrs by sulforhodamine B assay; format: functional, cell-based; details: SNB-19, 48 h
OVCAR-4 [2] = assay: Growth inhibition of human OVCAR4 cells incubated for 48 hrs by sulforhodamine B assay; format: functional, cell-based; details: OVCAR-4, 48 h
CAKI-1 = assay: Growth inhibition of human Caki1 cells incubated for 48 hrs by sulforhodamine B assay; format: functional, cell-based; details: CAKI-1, 48 h
MDA-MB-231 = assay: Growth inhibition of human MDA-MB-231 cells incubated for 48 hrs by sulforhodamine B assay; format: functional, cell-based; details: MDA-MB-231, 48 h
MDA-MB-468 = assay: Growth inhibition of human MDA-MB-468 cells incubated for 48 hrs by sulforhodamine B assay; format: functional, cell-based; details: MDA-MB-468, 48 h
CCRF-CEM = assay: Growth inhibition of human CCRF-CEM cells assessed as cell growth at 0.01 uM incubated for 48 hrs by sulforhodamine B assay relative to control; format: functional; details: read-out: Activity
NCI-H322M [3] = assay: Growth inhibition of human NCI-H322M cells assessed as cell growth at 0.01 uM incubated for 48 hrs by sulforhodamine B assay relative to control; format: functional; details: read-out: Activity
NCI-H522 = assay: Growth inhibition of human NCI-H522 cells assessed as cell growth at 0.01 uM incubated for 48 hrs by sulforhodamine B assay relative to control; format: functional; details: NCI-H522, 48 h, read-out: Activity
COLO 205 [4] = assay: Growth inhibition of human COLO205 cells assessed as cell growth at 0.01 uM incubated for 48 hrs by sulforhodamine B assay relative to control; format: functional; details: COLO 205, 48 h, read-out: Activity
HCT-15 = assay: Growth inhibition of human HCT15 cells assessed as cell growth at 0.01 uM incubated for 48 hrs by sulforhodamine B assay relative to control; format: functional; details: HCT-15, 48 h, read-out: Activity
PC-3 [5] = assay: Growth inhibition of human PC3 cells assessed as cell growth at 0.01 uM incubated for 48 hrs by sulforhodamine B assay relative to control; format: functional; details: PC-3, 48 h, read-out: Activity
SR = assay: Growth inhibition of human SR cells assessed as cell growth at 0.1 uM incubated for 48 hrs by sulforhodamine B assay relative to control; format: functional; details: read-out: Activity
A549 = assay: Growth inhibition of human A549/ATCC cells assessed as cell growth at 0.1 uM incubated for 48 hrs by sulforhodamine B assay relative to control; format: functional; details: A549, 48 h, read-out: Activity
NCI-H226 = assay: Growth inhibition of human NCI-H226 cells assessed as cell growth at 0.1 uM incubated for 48 hrs by sulforhodamine B assay relative to control; format: functional; details: NCI-H226, 48 h, read-out: Activity
NCI-H23 = assay: Growth inhibition of human NCI-H23 cells assessed as cell growth at 0.1 uM incubated for 48 hrs by sulforhodamine B assay relative to control; format: functional; details: NCI-H23, 48 h, read-out: Activity
COLO 205 [6] = assay: Growth inhibition of human COLO205 cells assessed as cell growth at 0.1 uM incubated for 48 hrs by sulforhodamine B assay relative to control; format: functional; details: COLO 205, 48 h, read-out: Activity
SF-295 = assay: Growth inhibition of human SF295 cells assessed as cell growth at 0.1 uM incubated for 48 hrs by sulforhodamine B assay relative to control; format: functional; details: SF-295, 48 h, read-out: Activity
NCI/ADR-RES = assay: Growth inhibition of human NCI/ADR-RES cells assessed as cell growth at 0.1 uM incubated for 48 hrs by sulforhodamine B assay relative to control; format: functional; details: read-out: Activity
PC-3 [7] = assay: Growth inhibition of human PC3 cells assessed as cell growth at 0.1 uM incubated for 48 hrs by sulforhodamine B assay relative to control; format: functional; details: PC-3, 48 h, read-out: Activity
Malme-3M = assay: Growth inhibition of human MALME-3M cells assessed as cell growth at 1 uM incubated for 48 hrs by sulforhodamine B assay relative to control; format: functional; details: read-out: Activity
SK-MEL-2 [8] = assay: Growth inhibition of human SK-MEL-2 cells assessed as cell growth at 1 uM incubated for 48 hrs by sulforhodamine B assay relative to control; format: functional; details: SK-MEL-2, 48 h, read-out: Activity
T47D = assay: Growth inhibition of human T47D cells assessed as cell growth at 1 uM incubated for 48 hrs by sulforhodamine B assay relative to control; format: functional; details: read-out: Activity
NCI-H322M [9] = assay: Growth inhibition of human NCI-H322M cells assessed as cell growth at 100 uM incubated for 48 hrs by sulforhodamine B assay relative to control; format: functional; details: read-out: Activity
NCI-H460 = assay: Growth inhibition of human NCI-H460 cells assessed as cell growth at 100 uM incubated for 48 hrs by sulforhodamine B assay relative to control; format: functional; details: NCI-H460, 48 h, read-out: Activity
SF-539 = assay: Growth inhibition of human SF539 cells assessed as cell growth at 100 uM incubated for 48 hrs by sulforhodamine B assay relative to control; format: functional; details: SF-539, 48 h, read-out: Activity
MDA-MB-435 = assay: Growth inhibition of human MDA-MB-435 cells assessed as cell growth at 100 uM incubated for 48 hrs by sulforhodamine B assay relative to control; format: functional; details: MDA-MB-435, 48 h, read-out: Activity
OVCAR-4 [10] = assay: Growth inhibition of human OVCAR4 cells assessed as cell growth at 100 uM incubated for 48 hrs by sulforhodamine B assay relative to control; format: functional; details: OVCAR-4, 48 h, read-out: Activity
UO-31 = assay: Growth inhibition of human UO31 cells assessed as cell growth at 100 uM incubated for 48 hrs by sulforhodamine B assay relative to control; format: functional; details: UO-31, 48 h, read-out: Activity
[11] = read-out: LC50 (the source's name)
[12] = read-out: pLC50 (the source's name) (converted)

## COc1cc(Cl)cc(-c2nn(-c3cccc(NC(=O)Nc4ccc(Cl)c(Cl)c4)c3)cc2-c2ccncc2)c1
SK-MEL-2 [1]
  growth at 10 µM: -32.1%
SW-620; read-out: GI50
  GI50: 3.43 µM
SW-620; read-out: LC50
  LC50: > 100 µM
SW-620; read-out: TGI
  TGI: > 100 µM
SW-620; read-out: pGI50 (converted)
  GI50: 3.39 µM
SW-620; read-out: pLC50 (converted)
  LC50: > 100 µM
SW-620; read-out: pTGI (converted)
  TGI: > 100 µM
SNB-19; read-out: GI50
  GI50: 3.51 µM
SNB-19; [11]
  CC50: > 100 µM
SNB-19; read-out: TGI
  TGI: > 100 µM
SNB-19; read-out: pGI50 (converted)
  GI50: 3.55 µM
SNB-19; [12]
  CC50: > 100 µM
SNB-19; read-out: pTGI (converted)
  TGI: > 100 µM
OVCAR-4 [2]; read-out: GI50
  GI50: 2 µM
OVCAR-4 [2]; [11]
  CC50: > 100 µM
OVCAR-4 [2]; read-out: TGI
  TGI: 53.8 µM
OVCAR-4 [2]; read-out: pGI50 (converted)
  GI50: 2.82 µM
OVCAR-4 [2]; [12]
  CC50: > 100 µM
OVCAR-4 [2]; read-out: pTGI (converted)
  TGI: 53.7 µM
CAKI-1; read-out: GI50
  GI50: 2.38 µM
CAKI-1; [11]
  CC50: > 100 µM
CAKI-1; read-out: TGI
  TGI: 15.7 µM
CAKI-1; read-out: pGI50 (converted)
  GI50: 2.4 µM
CAKI-1; [12]
  CC50: > 100 µM
CAKI-1; read-out: pTGI (converted)
  TGI: 16.6 µM
MDA-MB-231; read-out: GI50
  GI50: 1.87 µM
MDA-MB-231; [11]
  CC50: 1.5 µM
MDA-MB-231; read-out: TGI
  TGI: 45.2 µM
MDA-MB-231; read-out: pGI50 (converted)
  GI50: 1.86 µM
MDA-MB-231; [12]
  CC50: 15.8 µM
MDA-MB-231; read-out: pTGI (converted)
  TGI: 4.47 µM
MDA-MB-468
  IC50: 1.74 µM
MDA-MB-468; read-out: GI50
  GI50: 1.74 µM
MDA-MB-468; [11]
  CC50: > 100 µM
MDA-MB-468; read-out: TGI
  TGI: 73.7 µM
MDA-MB-468; read-out: pGI50 (converted)
  GI50: 1.74 µM
MDA-MB-468; [12]
  CC50: > 100 µM
MDA-MB-468; read-out: pTGI (converted)
  TGI: 7.41 µM
CCRF-CEM
  growth at 0.01 µM: 97%
NCI-H322M [3]
  growth at 0.01 µM: 101%
NCI-H522
  growth at 0.01 µM: 95%
COLO 205 [4]
  growth at 0.01 µM: 99%
HCT-15
  growth at 0.01 µM: 93%
PC-3 [5]
  growth at 0.01 µM: 96%
SR
  growth at 0.1 µM: 51%
A549
  growth at 0.1 µM: 97%
NCI-H226
  growth at 0.1 µM: 96%
NCI-H23
  growth at 0.1 µM: 93%
COLO 205 [6]
  growth at 0.1 µM: 103%
SF-295
  growth at 0.1 µM: 57%
NCI/ADR-RES
  growth at 0.1 µM: 98%
PC-3 [7]
  growth at 0.1 µM: 98%
Malme-3M
  growth at 1 µM: 77%
SK-MEL-2 [8]
  growth at 1 µM: 80%
T47D
  growth at 1 µM: 87%
NCI-H322M [9]
  growth at 100 µM: 3%
NCI-H460
  growth at 100 µM: -8%
SF-539
  growth at 100 µM: -40%
MDA-MB-435
  growth at 100 µM: -33%
OVCAR-4 [10]
  growth at 100 µM: -4%
UO-31
  growth at 100 µM: -10%
